Here are results for 41 molecules from patent US20050288347A1, “Certain triazole-based compounds, compositions, and uses thereof” (priority 2004, published 2005).

Entries after “also recorded” stand apart in the source; their conditions may differ.

For the first experiment, the target named is protein kinase. Kind of experiment: HTS ATP-utilizing enzyme assay, off-chip mobility-shift format (Caliper HTS 250). Format: biochemical, human. The settings on record: kinase(s) for which the compound exhibits protein kinase inhibitory activity; test compound 10 μM; active = greater than three-sigma from the mean activity of inactive compounds. An outline of the steps: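 Kinase reactions ran 2.5 h at 20 to 22 °C with test compound at 10 μM, in a HEPES pH 7.5 master buffer containing Triton X-100 and BSA. Peptide substrate and phosphorylated product separated by mobility shift; inhibition normalized to DMSO (0%) and EDTA (100%) controls, with three-sigma thresholds for hits.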
For the molecule `O=C(O)c1ccc(-n2c(S)nnc2-c2cc(C3CC3)n[nH]2)cc1`, the Kinase entry is “GSK3-α”.

Turning to `CCOc1ccc(NCc2nnc(SCC(=O)N3CCN(C)CC3)n2-c2ccc(C)cc2)cc1`, the Kinase entry was “FYN and AURORA-A”.

Regarding `NC(=O)CSc1nnc(CNc2ccc(F)cc2)n1-c1ccccc1`, the Kinase entry is reported as “FLT-3”.

Regarding `O=C(CSc1nnc(-c2ccc(O)cc2)n1Cc1ccco1)N1CCc2ccccc2C1`, the Kinase entry is “GSK3-β and GSK3-α and SRC”.

`N#CCSc1nnc(-c2cccnc2)n1-c1ccccc1` [2-(4-phenyl-5-(pyridin-3-yl)-4H-1,2,4-triazol-3-ylthio)acetonitrile]: the Kinase result is on record as “AURORA-A”.

In the case of `Cn1c(CNc2ccc(F)cc2)nnc1SCC(=O)Nc1ccc([N+](=O)[O-])cc1`, the Kinase result was “CHEK2”.

For `COc1ccc(NCc2nnc(SCC(=O)Nc3ccccc3C(=O)O)n2-c2ccc(OC)cc2)cc1`, the Kinase result is on record as “FYN”.

Take `O=C(O)CSc1nnc(-c2cccs2)[nH]1` [2-(5-(thiophen-2-yl)-4H-1,2,4-triazol-3-ylthio)acetic acid]: the Kinase entry is “DYRK2; also recorded: GSK3-β; also recorded: GSK3-α”.

For `CCn1c(CNc2cccc(Cl)c2)nnc1SCC(=O)Nc1ccccc1C(=O)OC`, the Kinase result is “AURORA-A”.

On to `Cn1c(SCC(=O)N2CCCc3ccccc32)nnc1-c1cc2ccccc2cc1O`, for which the Kinase result was “FYN and AURORA-A and DAPK1”.

Consider `Cc1cccc(OCc2nnc(SCC(=O)N3CCCc4ccccc43)n2Cc2ccco2)c1C`, for which the Kinase result was “AKT1”.

For `O=C(CSc1nnc(-c2ccc(O)cc2)n1Cc1ccccc1)OC1CCCCC1`, the Kinase entry is on record as “GSK3-α; also recorded: GSK3-β”.

As to `CCn1c(S)nnc1-c1cc2ccccc2cc1O` [3-(4-ethyl-5-mercapto-4H-1,2,4-triazol-3-yl)naphthalen-2-ol], the Kinase result was “AURORA-A”.

Consider `COc1ccc(-n2c(Cc3ccccc3)nnc2SCC(=O)N2c3ccccc3Sc3ccccc32)cc1`, for which the Kinase result is “SRC and LCK”.

Turning to `O=C(CSc1nnc(COc2ccc(Cl)cc2)[nH]1)c1ccccc1` [2-(5-((4-chlorophenoxy)methyl)-4H-1,2,4-triazol-3-ylthio)-1-phenylethanone], the Kinase result is “GSK3-α; also recorded: FLT-3; also recorded: GSK3-β”.

Regarding `COc1ccc(-n2c(SC(C)C(=O)Nc3ccc(C(C)=O)cc3)nnc2-c2ccc(O)cc2)cc1` (centres unmarked), the Kinase entry was “GSK3-β; also recorded: GSK3-α”.

As for `Sc1nnc(CNc2ccc(Cl)cc2)n1Cc1ccccc1` [4-benzyl-5-((4-chlorophenylamino)methyl)-4H-1,2,4-triazole-3-thiol], the Kinase result is recorded as “AURORA-A”.

Turning to `CCOc1ccc(NCc2nnc(S)n2-c2ccc(OC)cc2)cc1`, the Kinase result was “FLT-3; also recorded: PDGFRR-α; also recorded: AURORA-A”.

Turning to `COc1ccc(-c2nnc(SCC(=O)Nc3ccc4c(c3)OCO4)n2C)cc1`, the Kinase entry is on record as “AKT1”.

For the molecule `COc1ccc(-n2c(S)nnc2CNc2ccc(Cl)cc2)cc1`, the Kinase entry was “AURORA-A; also recorded: GSK3-α”.

With `CCn1c(CSc2nc(C)cc(C)n2)nnc1SCC(=O)Nc1nccs1`, the Kinase result was “GSK3-α”.

On to `COc1ccc(-n2c(Cc3ccccc3)nnc2SCC(=O)Nc2ccccc2)cc1`, for which the Kinase entry is recorded as “CHEK2”.

For `COc1ccc(NCc2nnc(S)n2-c2ccc(OC)cc2)cc1`, the Kinase entry is “PDGFRR-α; also recorded: AURORA-A; also recorded: GSK3-α”.

In the case of `Cc1cccc(-c2nnc(S)n2Cc2ccccc2)c1` [4-benzyl-5-m-tolyl-4H-1,2,4-triazole-3-thiol], the Kinase entry was “GSK3-α”.

On to `COC(=O)CSc1nnc(-c2ccncc2)[nH]1` [methyl 2-(5-(pyridin-4-yl)-4H-1,2,4-triazol-3-ylthio)acetate], for which the Kinase entry was “AURORA-A; also recorded: DYRK2; also recorded: GSK3-β”.

As to `COCCn1c(SCC(=O)NCc2ccc3c(c2)OCO3)nnc1-c1cc2ccccc2cc1O`, the Kinase result was “AURORA-A”.

Take `O=C(CSc1nncn1-c1ccccn1)Nc1nccs1` [2-(4-(pyridin-2-yl)-4H-1,2,4-triazol-3-ylthio)-N-(thiazol-2-yl)acetamide]: the Kinase entry is given as “GSK3-α”.

Regarding `Cc1ccc(-n2c(S)nnc2CNc2ccc(F)cc2)cc1` [5-((4-fluorophenylamino)methyl)-4-p-tolyl-4H-1,2,4-triazole-3-thiol], the Kinase entry is reported as “AURORA-A; also recorded: GSK3-α; also recorded: GSK3-β”.

Still in this experiment, the particulars now being: test compound 10 μM; active = activity greater than three-sigma from the mean of the predominately inactive population for that enzyme.
As to `O=C(O)c1ccc(CSc2nnc(-c3cccs3)[nH]2)cc1` [4-((5-(thiophen-2-yl)-4H-1,2,4-triazol-3-ylthio)methyl)benzoic acid], the “protein kinase against which the compound exhibits inhibitory activity (Table 3)” value was “DYRK2; also recorded: AURORA-A; also recorded: FLT-3”.

Regarding `O=C(CSc1nnc(-c2ccccc2O)n1Cc1ccccc1)NNC(=O)c1ccccc1O`, the “protein kinase against which the compound exhibits inhibitory activity (Table 3)” value is “FYN and HCK”.

Turning to `CSc1nnc(-c2ccc(O)cc2)n1Cc1ccccc1` [4-(4-benzyl-5-(methylthio)-4H-1,2,4-triazol-3-yl)phenol], the “protein kinase against which the compound exhibits inhibitory activity (Table 3)” value was “GSK3-α; also recorded: GSK3-β”.

Turning to `CN(C)CCCSc1nnc(C2CCCC2)[nH]1`, the “protein kinase against which the compound exhibits inhibitory activity (Table 3)” value is listed as “c-TAK1”.

With `c1ccc(-c2nnc(SCCN3CCCC3)[nH]2)cc1` [3-phenyl-5-(2-(pyrrolidin-1-yl)ethylthio)-4H-1,2,4-triazole], the “protein kinase against which the compound exhibits inhibitory activity (Table 3)” value is “GSK3-α; also recorded: GSK3-β; also recorded: CHEK2”.

For `N#Cc1ccccc1CSc1nnc(-c2cccs2)[nH]1` [2-((5-(thiophen-2-yl)-4H-1,2,4-triazol-3-ylthio)methyl)benzonitrile], the “protein kinase against which the compound exhibits inhibitory activity (Table 3)” value was “AURORA-A; also recorded: CHEK2; also recorded: GSK3-α”.

In the case of `CCCCSc1nnc(-c2ccc(Cl)c(Cl)c2)[nH]1` [3-(butylthio)-5-(3 ,4-dichlorophenyl)-4H-1,2,4-triazole], the “protein kinase against which the compound exhibits inhibitory activity (Table 3)” value is reported as “AURORA-A; also recorded: FLT-3; also recorded: GSK3-α”.

As to `CCn1c(SCc2ccccc2Cl)nnc1-c1cc(-c2ccccc2)nc2ccccc12` [4-(5-(2-chlorobenzylthio)-4-ethyl-4H-1,2,4-triazol-3-yl)-2-phenylquinoline], the “protein kinase against which the compound exhibits inhibitory activity (Table 3)” value was “CHEK2”.

As to `COc1ccc(-c2nnc(SCc3cccnc3)[nH]2)cc1` [3-((5-(4-methoxyphenyl)-4H-1,2,4-triazol-3-ylthio)methyl)pyridine], the “protein kinase against which the compound exhibits inhibitory activity (Table 3)” value is “AURORA-A; also recorded: FLT-3; also recorded: DYRK2”.

In the case of `Cc1ccc(CSc2nnc(-c3ccccc3C)n2C)cc1` [4-methyl-3-(4-methylbenzylthio)-5-o-tolyl-4H-1,2,4-triazole], the “protein kinase against which the compound exhibits inhibitory activity (Table 3)” value is “AKT1”.

On to `CC(C)(C)c1nnc(SCc2ccncc2)[nH]1` [4-((5-tert-butyl-4H-1,2,4-triazol-3-ylthio)methyl)pyridine], for which the “protein kinase against which the compound exhibits inhibitory activity (Table 3)” value is listed as “GSK3-α”.

Consider `Cn1c(SCc2ccc(Cl)c(Cl)c2)nnc1-c1ccc(Cl)cc1` [3-(4-chlorophenyl)-5-(3,4-dichlorobenzylthio)-4-methyl-4H-1,2,4-triazole], for which the “protein kinase against which the compound exhibits inhibitory activity (Table 3)” value is “PRAK and FYN”.

As for `CCOC(=O)c1ccc(CSc2nnc(-c3cccc(C)c3)[nH]2)o1` [ethyl 5-((5-m-tolyl-4H-1,2,4-triazol-3-ylthio)methyl)furan-2-carboxylate], the “protein kinase against which the compound exhibits inhibitory activity (Table 3)” value is listed as “AURORA-A; also recorded: FLT-3; also recorded: CHEK2”.
